This note sets out measurements from US20240423961A1, “1H-1,2,3-TRIAZOLE-4-CARBOXYLIC ACIDS FOR TREATMENT OF HYPEROXALURIA AND KIDNEY STONES” (CANTERO THERAPEUTICS, INC., priority 2021, published 2024).

The data set is described as follows: Phase 1 SAD/MAD study: safety and tolerability (adverse events, vital signs, ECG, laboratory tests). Format: in vivo, human. How it is done:
A Phase 1 clinical study is performed to assess the safety and dosing of Compound 1a. This Phase 1 study consists of two parts. In Part A, healthy adults randomized 3:1 (active:placebo) receive a single dose of orally administered Compound 1a or matching placebo in six (6) ascending dose groups. In Part B, healthy adults randomized 3:1 (active:placebo) received multiple doses of orally administered Compound 1a or matching placebo in six (6) ascending dose groups. Safety and tolerability were assessed by the incidence of adverse events, vital signs, electrocardiograms, and clinical laboratory tests. Pharmacokinetics and pharmacodynamics (changes in plasma and urine glycolate) were measured using validated bioanalytical assays.
Study Design: The study was approved by the Advarra Institutional Review Board (Columbia, MD). All participants provided written informed consent. The trial was conducted at a single center (Celerion, Tempe, Arizona) according to the Good Clinical Practice guidelines of the International Conference on Harmonization and the World Health Organization Declaration of Helsinki. The study was a randomized, double-blind, placebo-controlled, single and multiple ascending dose study. The primary objective of the study was to evaluate the safety and tolerability of single and multiple doses of Compound 1a administered to healthy adult volunteers. The secondary objectives were to characterize the pharmacokinetics (PK) of Compound 1a and to describe the pharmacodynamic (PD) properties in healthy adult volunteers. The study also evaluated the effect of food on the PK of Compound 1a.
Subject disposition: Six cohorts of 6 to 8 subjects each (N=up to 48) were administered single doses of 40, 120, 360, 1,000, 2,000, and 3,000 mg of Compound 1a in Part A under fasting conditions. Following a 2-week washout, subjects in the 1,000 mg cohort were administered a second 1,000 mg single dose following a high-fat breakfast. Six cohorts of 8 healthy subjects each were administered multiple doses of 75 mg […] (qd), 125 mg every 12 hours (q12 h), 500 mg q12 h, 500 mg qd, 750 mg qd, and 1,000 mg qd for 7 days in the MAD Part B (FIG. 1).

Setting [1] is: Part A single ascending dose, 40 mg (n = 7).
Where [2] appears, read: Part A single ascending dose, 120 mg (n = 8).
Where [3] appears, read: Part A single ascending dose, 360 mg (n = 6).
[4] abbreviates: Part A single ascending dose, 1,000 mg (n = 8).
The mark [5] stands for this setting: Part A single ascending dose, 2,000 mg (n = 8).
Setting [6] is: Part B multiple ascending dose, 125 mg q12 h (n = 8).
Setting [7] is: Part B multiple ascending dose, 500 mg q12 h (n = 8).
[8] abbreviates: Part B multiple ascending dose, 500 mg qd (n = 8).

Take `O.O=C([O-])c1nn[nH]c1Oc1ccc(-c2ccc(C3CC(F)(F)C3)cc2)cc1.[Na+]` [Compound 1a, sodium 5-((4′-(3,3-difluorocyclobutyl)-[1,1′-biphenyl]-4-yl)oxy)-1H-1,2,3-triazole-4-carboxylate monohydrate]: the “AEs leading to study discontinuation” value (Part A and Part B) was “no AEs leading to study discontinuation”. Further, where the note is “Part A and Part B”, the dose-limiting toxicities entry is listed as “No dose-limiting toxicities were observed”. Also, the “intensity of AEs” value (Part A and Part B) was “all were mild to moderate in intensity”. In addition, where the note is “Part A and Part B”, the “post dose electrocardiogram findings” value was “nor were there clinically important post dose electrocardiogram findings”. In addition, the safety laboratory tests result (Part A and Part B) was “no clinically significant changes or trends observed”. Further, the “serious or severe AEs” value (Part A and Part B) is reported as “No serious or severe AEs were reported”. The AEs reads like this: under setting [1], 10; under setting [2], 1; under setting [3], 0; under setting [4], 4; under setting [5], 3; under setting [6], 6. For the same molecule, the AEs is on record as 12 under setting [7] and 1 under setting [8]. For the same molecule, the SAEs by setting is: under setting [1], 0; under setting [2], 0; under setting [3], 0; under setting [4], 0; under setting [5], 0; under setting [6], 0. In addition, the SAEs is, setting by setting: under setting [7], 0; under setting [8], 0. For the same molecule, where the note is “single doses up to 3,000 mg and multiple doses up to 2,000 mg per day (1,000 mg qd)”, the tolerability entry is recorded as “well tolerated”.
